Measurements taken from patent EP3351262A1, “CURAGLUTIDE FOR IN TREATMENT OF PREDIABETES, DIABETES, OBESITY AND METABOLIC DISEASES ASSOCIATED THERETO” (Istanbul Universitesi Rektorlugu, priority 2016, dated 2018).
Like-named read-outs stand apart in the source and are kept apart here.

System: INS-1 cells
Assay type: cell-based, rat
Details: for cell viability values: 24 hours, INS-1 cells, control 100±3.3%
Procedure: INS-1 cell strain from rat origin used in the studies was proliferated by performing routine passages once per week. The cells were grown under 1 atm pressure, in the incubator containing 5% CO2 and 95% air, in powder RPMI 1640 medium containing heat inactivated 10% fetal bovine serum (FBS) and antibiotics (100 unit/ml penicillin G100, 100 µg/ml streptomycin), 1% sodium pyruvate, hepes, sodium bicarbonate and beta-mercaptoethanol at 37 °C. The cells produced in 75 cm^2 sterile culture plate were used for the experiment when they covered 60-80% of the culture plate.
The cells to be used in the experiments were removed from the surface of culture plate where they stuck, when they cover 60-80% of the culture plate, by using trypsin. In order to prevent the effect of trypsin to cells whose removal was monitored under microscope, the medium with the equal amount as trypsin was added and the cell suspension was collected in the centrifuge tube and centrifuged in 1500 rpm for 5 minutes. The supernatant was removed after centrifuge, the medium was added to the cells remained in the bottom part of the tube and pipetted in order to form single cell suspension. The total amount of cells was calculated by using hemocytometer. 50 000 INS-1 beta cells taken from 100% viable single cell suspension, whose cell amount was calculated, were cultured to each of the culture plates with 96 wells. The cultured cells were incubated at 37 °C for 24 hours in order to provide the sticking to the surface of culture plate and growing. After 24 of incubation, the cells were treated with 0.25 mM, 0.5 mM, 0.75 mM, 1 mM, 1.25 mM, 1.5 mM, 1.75 mM, 2 mM, 2.5 mM, 2.75 mM, 3 mM, 3.25 mM, 3.5 mM, 3.75 mM,4 mM, 4.25 mM, 4.5 mM, 4.75 mM, 5 mM palmitic acid which were the chosen doses for palmitic acid. 10 wells including the control group were used in the experiments and 24-hour experiment groups were formed for each of the concentrations.
After the removal of the grown cells by trypsin, culturing was performed to 96 wells in a way such that there would be 50 000 cells in 200 µl. The cultured cells were incubated at 37 °C for 24 hours in order to provide growing. After 24 h of incubation, the cells were treated with 1nM, 10nM, 100nM curaglutide which were the chosen doses. 10 wells including the control group were used in the experiments and 24-hour experiment groups have been formed for each of the concentrations.
MTT ([3-(4, 5-dimethyl tiazol-2-il)-2, 5 diphenyl tetrazolium bromide]) test is a drug sensitivity test based on cell culture principal, it aims to assess the cell growth and/or cell death in an indirect way. This frequently used test differs from the other testing methods, with the advantages that it is fast, sensitive, reproducible and easy to apply. The cracking of the tetrazolium ring of MTT paint by mitochondria in living cells underlies the basis of this method. This reaction is catalyzed by succinate dehydrogenase which is a mitochondrial enzyme. MTT is absorbed to cells actively and it is reduced to formazan which is non-soluble in water and has blue-purple color, by the reaction taking place in mitochondria. The MTT reducing properties of the cells are accepted as the cell viability criteria and they are directly proportionate to the paint density and living cell amount obtained by MTT analyze. While living cells with non-damaged mitochondria function are painted with purple color, cells that are dead or with damaged mitochondria function are not painted. Following bringing the formazan crystals formed by incubated living cells into soluble form, reaction product is read […].
50 mg MTT (AppliChem A2231 0001) was weighed, it was dissolved by completing 10 ml with RPMI 1640 medium via vortex, with paying attention that there are no not-dissolved paint particles left, and they were obtained by filtering through 0.22 µm filter. It was used by preparing a fresh one each time. […]

CC[C@H](C)[C@H](NC(=O)[C@H](Cc1ccccc1)NC(=O)[C@H](CCC(=O)O)NC(=O)[C@H](CCCCN)NC(=O)[C@H](C)NC(=O)[C@H](C)NC(=O)[C@H](CCC(N)=O)NC(=O)CNC(=O)[C@H](CCC(=O)O)NC(=O)[C@H](CC(C)C)NC(=O)[C@H](Cc1ccc(O)cc1)NC(=O)[C@H](CO)NC(=O)[C@H](CO)NC(=O)[C@@H](NC(=O)[C@H](CC(=O)O)NC(=O)[C@H](CO)NC(=O)[C@@H](NC(=O)[C@H](Cc1ccccc1)NC(=O)[C@@H](NC(=O)CNC(=O)[C@H](CCC(=O)O)NC(=O)[C@H](C)NC(=O)[C@H](Cc1c[nH]cn1)NC(C)=O)[C@@H](C)O)[C@@H](C)O)C(C)C)C(=O)N[C@@H](C)C(=O)N[C@@H](Cc1c[nH]c2ccccc12)C(=O)N[C@@H](CC(C)C)C(=O)N[C@H](C(=O)N[C@@H](CCCCN)C(N)=O)C(C)C [curaglutide]
cell viability values (1 nM curaglutide alone): 104.50±3.70%
cell viability values (10 nM curaglutide alone): 121.80±7.30%
% cell viability values (10 nM curaglutide as curative agent (24 h after 24 h palmitic acid) for 1.75 mM palmitic acid (autophagic dose)): 78.3±1.6%
% cell viability values (10 nM curaglutide as curative agent for 2 mM palmitic acid (apoptotic dose)): 60.9±4.3%
% cell viability values (10 nM curaglutide as curative agent for 3 mM palmitic acid (necrotic dose)): 56.5±1.7%
% cell viability values (10 nM curaglutide as curative agent for 4 mM palmitic acid): 46.6±5.8%
% cell viability values (10 nM curaglutide as protective against 3 mM palmitic acid (necrotic dose)): 56.4±4.7%
% cell viability values (10 nM curaglutide as protector (24 h pre-treatment, then with palmitic acid 24 h) against 1.75 mM palmitic acid (autophagic dose)): 129.9±4.6%
% cell viability values (10 nM curaglutide as protector against 2 mM palmitic acid (apoptotic dose)): 103.9±0.6%
% cell viability values (10 nM curaglutide as protector against 4 mM palmitic acid): 52.2±4.6%
cell viability values (100 nM curaglutide alone): 115.20±3.30%
